Experimental data: patent US9868692B2, “Compounds and compositions for intracellular delivery of therapeutic agents” (MODERNATX, Inc., priority 2015, dated 2018)

Legend:
[1] = Particle size, polydispersity index (and zeta potential) of nanoparticle compositions, Zetasizer Nano ZS; format: physicochemical; conditions: Table 1A formulations
Source text: Nanoparticle compositions may be characterized by a variety of methods. For example, microscopy (e.g., transmission electron microscopy or scanning electron microscopy) may be used to examine the morphology and size distribution of a nanoparticle composition. Dynamic light scattering or potentiometry (e.g., potentiometric titrations) may be used to measure zeta potentials. Dynamic light scattering may also be utilized to determine particle sizes. Instruments such as the Zetasizer Nano ZS (Malvern Instruments Ltd, Malvern, Worcestershire, UK) may also be used to measure multiple characteristics of a nanoparticle composition, such as particle size, polydispersity index, and zeta potential.
A Zetasizer Nano ZS (Malvern Instruments Ltd, Malvern, Worcestershire, UK) can be used to determine the particle size, the polydispersity index (PDI) and the zeta potential of the nanoparticle compositions in 1×PBS in determining particle size and 15 mM PBS in determining zeta potential.

[2] = Encapsulation efficiency of RNA, QUANT-IT RIBOGREEN RNA assay; format: physicochemical; conditions: Table 1A formulations
Source text: The efficiency of encapsulation of a therapeutic and/or prophylactic describes the amount of therapeutic and/or prophylactic that is encapsulated or otherwise associated with a nanoparticle composition after preparation, relative to the initial amount provided. The encapsulation efficiency is desirably high (e.g., close to 100%). The encapsulation efficiency may be measured, for example, by comparing the amount of therapeutic and/or prophylactic in a solution containing the nanoparticle composition before and after breaking up the nanoparticle composition with one or more organic solvents or detergents. Fluorescence may be used to measure the amount of free therapeutic and/or prophylactic (e.g., RNA) in a solution. For the nanoparticle compositions described herein, the encapsulation efficiency of a therapeutic and/or prophylactic may be at least 50%, for example 50%, 55%, 60%, 65%, 70%, 75%, 80%, 85%, 90%, 91%, 92%, 93%, 94%, 95%, 96%, 97%, 98%, 99%, or 100%. In some embodiments, the encapsulation efficiency may be at least 80%. In certain embodiments, the encapsulation efficiency may be at least 90%.
For nanoparticle compositions including an RNA, a QUANT-IT™ RIBOGREEN® RNA assay (Invitrogen Corporation Carlsbad, Calif.) can be used to evaluate the encapsulation of an RNA by the nanoparticle composition. The samples are diluted to a concentration of approximately 5 μg/mL in a TE buffer solution (10 mM Tris-HCl, 1 mM EDTA, pH 7.5). 50 μL of the diluted samples are transferred to a polystyrene 96 well plate and either 50 μL of TE buffer or 50 μL of a 2% Triton X-100 solution is added to the wells. The plate is incubated at a temperature of 37° C. for 15 minutes. The RIBOGREEN® reagent is diluted 1:100 in TE buffer, and 100 μL of this solution is added to each well. The fluorescence intensity can be measured using a fluorescence plate reader (Wallac Victor 1420 Multilablel Counter; Perkin Elmer, Waltham, Mass.) at an excitation wavelength of, for example, about 480 nm and an emission wavelength of, for example, about 520 nm. The fluorescence values of the reagent blank are subtracted from that of each of the samples and the percentage of free RNA is determined by dividing the fluorescence intensity of the intact sample (without addition of Triton X-100) by the fluorescence value of the disrupted sample (caused by the addition of Triton X-100).

[3] = Residual lipid level in liver of rats (UPLC-MS quantification); format: in vivo; conditions: rat; for concentration at 48 h: intravenous; for % Lipid Remaining in liver, 48 h 2 mpk: assuming 300 g rat and 15 g liver
Protocol: (§1) To pre-weighed tissues, Milli-Q water was added (900 μL water per 100 mg tissue). Tissues were homogenized using an Omni probe homogenizer until uniform. 50 μL of samples and matrix calibration standards were aliquoted into a 96-well plate. 50 μL of blank matrix for matrix blanks and control blanks were aliquoted. 400 μL IS spiking solution were manually added to all samples except matrix blanks. 400 μL of 50:50 ACN:IPA were manually added to matrix blanks. The plate was covered and the samples vortexed and centrifuged for 5 minutes at >3000 rpm. 200 μL of the samples were transferred into a clean 96-well plate for analysis. […] Detection was based on electrospray ionization (ESI) in positive mode using a Sciex API5500 Mass Spectrometer.
(§2) The expression of hEPO in rats intravenously administered a nanoparticle composition at a dose of 0.2 mpk or 2.0 mpk was measured at 6 hours. […] Liver and spleen levels represent the average values calculated for 3 rats in each group.
(§3) The expression of hEPO and lipid levels in the liver and spleen in rats intravenously administered a nanoparticle composition at a dose of 0.2 mpk was measured at various timepoints. […] Lipids were formulated according to the standard MC3 formulation described above.

[4] = Residual lipid level in spleen of rats (UPLC-MS quantification); format: in vivo; conditions: rat
Protocol: as §1, §2, §3

[5] = liver, 0.2 mg/kg, 0.2 mpk, 48 h, average of 3 rats, read-out: Liver level
[6] = liver, 2 mg/kg, 2 mpk, 48 h, average of 3 rats, read-out: Liver level
[7] = intravenous, 0.2 mg/kg, 0.2 mpk, 48 h, average of 3 rats, read-out: Spleen level
[8] = intravenous, 2 mg/kg, 2 mpk, 48 h, average of 3 rats, read-out: Spleen level
[9] = liver, iv, 0.2 mg/kg, 0.2 mpk, 48 hours, read-out: Liver level
[10] = liver, iv, 2 mg/kg, 2 mpk, 48 hours, read-out: Liver level
[11] = iv, 0.2 mg/kg, 0.2 mpk, 48 hours, read-out: Spleen level
[12] = iv, 2 mg/kg, 2 mpk, 48 hours, read-out: Spleen level

For `CCCC/C=C\CCC(CC/C=C\CCCC)OC(=O)CCCCCCCN(CCO)CCCCCC(=O)OCCCCCCCCCCC` [Compound 61, (5Z,12Z)-heptadeca-5,12-dien-9-yl 8-((2-hydroxyethyl)(6-oxo-6-(undecyloxy)hexyl)amino)octanoate], the PDI [1] was 0.11 and the “EE (%)” value [2] was 97.2%.
In the case of `CCCCCCCCCOC(=O)CCCCCCCN(CCCCCCCC(=O)OC(CCCCCCCC)CCCCCCCC)CCCNC(=O)NC` [Compound 112, Heptadecan-9-yl 8-((3-(3-methylureido)propyl)(8-(nonyloxy)-8-oxooctyl)amino)octanoate], the PDI [1] is reported as 0.12.
With `CCCCCCCCC(CCCCCCCC)OC(=O)CCCCCCCN(CCO)CCCC(=O)OC(CCCCC)CCCCCCCC` (centres unmarked) [Compound 71, Heptadecan-9-yl 8-((2-hydroxyethyl)(4-oxo-4-(tetradecan-6-yloxy)butyl)amino)octanoate] the PDI [1] was 0.11.
Work on `CCCCCCCCC(CCCCCCCC)OC(=O)CCCCCCCN(CCO)CCCC(=O)OCCCCCCC` [Compound 54, heptadecan-9-yl 8-((4-(heptyloxy)-4-oxobutyl)(2-hydroxyethyl)amino) octanoate] yielded a concentration at 48 h [3, 5] of 6070 ng/g, a concentration at 48 h [3, 6] of 56100 ng/g and a concentration at 48 h [4, 7] of 6360 ng/g. It also gave a concentration at 48 h [4, 8] of 49400 ng/g.
In the case of `CCCCCCCCCOC(=O)CCCCCCCN(CCCCCCCC(=O)OC(CCCCCCCC)CCCCCCCC)CCCOC(=O)NC` [Compound 175, Heptadecan-9-yl 8-((3-((methylcarbamoyl)oxy)propyl)(8-(nonyloxy)-8-oxooctyl)amino)octanoate], the PDI [1] is reported as 0.2.
`CCCCCCCCCCCOC(=O)CCCCCN(CCO)CCCCCCCC(=O)OC(CCCCCCCC)CCCCCCCC` [Compound 25, Heptadecan-9-yl 8-((2-hydroxyethyl)(6-oxo-6-(undecyloxy)hexyl)amino)octanoate] gave a concentration at 0.25 h ([3]; liver, iv, 0.2 mg/kg, 0.2 mpk, 0.25 h) of 12000 ng/g, a concentration at 0.5 h ([3]; liver, iv, 0.2 mg/kg, 0.2 mpk, 0.5 h) of 16400 ng/g and a concentration at 1 h ([3]; liver, iv, 0.2 mg/kg, 0.2 mpk, 1 h) of 17900 ng/g. It also gave a concentration at 2 h ([3]; liver, iv, 0.2 mg/kg, 0.2 mpk, 2 h) of 11700 ng/g, a concentration at 4 h ([3]; liver, iv, 0.2 mg/kg, 0.2 mpk, 4 h) of 6690 ng/g and a concentration at 8 h ([3]; liver, iv, 0.2 mg/kg, 0.2 mpk, 8 h) of 2360 ng/g. For the same compound, the concentration at 24 h ([3]; liver, iv, 0.2 mg/kg, 0.2 mpk, 24 h) was 199 ng/g, the concentration at 48 h ([3]; liver, iv, 0.2 mg/kg, 0.2 mpk, 48 h, read-out: Lipid level in liver) was 12000 ng/g and the concentration at 0.25 h ([4]; iv, 0.2 mg/kg, 0.2 mpk, 0.25 h) was 4040 ng/g. The concentration at 0.5 h ([4]; iv, 0.2 mg/kg, 0.2 mpk, 0.5 h) was 6880 ng/g, the concentration at 1 h ([4]; iv, 0.2 mg/kg, 0.2 mpk, 1 h) was 8590 ng/g and the concentration at 2 h ([4]; iv, 0.2 mg/kg, 0.2 mpk, 2 h) was 13700 ng/g. It also gave a concentration at 4 h ([4]; iv, 0.2 mg/kg, 0.2 mpk, 4 h) of 20400 ng/g, a concentration at 8 h ([4]; iv, 0.2 mg/kg, 0.2 mpk, 8 h) of 10800 ng/g and a concentration at 24 h ([4]; iv, 0.2 mg/kg, 0.2 mpk, 24 h) of 2020 ng/g. The concentration at 48 h ([4]; iv, 0.2 mg/kg, 0.2 mpk, 48 h, read-out: Lipid level in spleen) was 1550 ng/g.
In the case of `CCCCCCCCC(CCC)OC(=O)CCCCCCCN(CCO)CCCCCCCC(=O)OC(CCCCCCCC)CCCCCCCC` (centres unmarked) [Compound 50, dodecan-4-yl 8-((8-(heptadecan-9-yloxy)-8-oxooctyl)(2-hydroxyethyl)amino)octanoate], the concentration at 48 h [3, 9] is reported as 5820 ng/g, the concentration at 48 h [3, 10] is reported as 79200 ng/g and the concentration at 48 h [4, 11] is reported as 0.22. It also gave a concentration at 48 h [4, 12] of 0.17.
In the case of `CCCCCCCCCOC(=O)CCCN(CCO)CCCCCCCC(=O)OC(CCCCCCCC)CCCCCCCC` [Compound 26, Heptadecan-9-yl 8-((2-hydroxyethyl)(4-(nonyloxy)-4-oxobutyl)amino) octanoate], the “% Lipid Remaining in liver, 48 h 2 mpk” value ([3]; 2 mpk, 48 h) is reported as 20%.
With `CCCCCC/C=C\COC(=O)CCCCCCCN(CCO)CCCCCCCC(=O)OC(CCCCCCCC)CCCCCCCC` [Compound 24, Heptadecan-9-yl (Z)-8_((2-hydroxyethyl)(8-(non-2-en-1-yloxy)-8-oxooctyl)amino)octanoate] the “% Lipid Remaining in liver, 48 h 2 mpk” value ([3]; 2 mpk, 48 h) was 0.016%.
`CCCCCCCCCOC(=O)CCCCCCCN(CCO)CCCCCCCC(=O)OC(CCCCC)CCCCCCCC` (centres unmarked) [Compound 33, nonyl 8-((2-hydroxyethyl)(8-oxo-8-(tetradecan-6-yloxy)octyl)amino) octanoate] gave a concentration at 48 h [3, 6] of 103 ng/g, a concentration at 48 h [4, 7] of 115 ng/g and a concentration at 48 h [4, 8] of 287 ng/g.
`CCCCCCCCCOC(=O)CCCCCCCN(CCO)CCCCCCC(=O)OCC(CCCCCCCC)CCCCCCCC` [Compound 143, Nonyl 8-((2-hydroxyethyl)(7-((2-octyldecyl)oxy)-7-oxoheptyl)amino)octanoate] showed a PDI [1] of 0.19.
Compound `CCCCCCCCC(CCCCCCCC)OC(=O)CCCCCCCN(CCO)CCCC(=O)OCCCCCC` [Compound 53, heptadecan-9-yl 8-((4-(hexyloxy)-4-oxobutyl)(2-hydroxyethyl)amino) octanoate] has a concentration at 48 h [3, 5] of 4810 ng/g, a concentration at 48 h [3, 6] of 47000 ng/g and a concentration at 48 h [4, 7] of 1180 ng/g. The concentration at 48 h [4, 8] was 201000 ng/g.
For `CCCCCCCCC(CCCCCCCC)OC(=O)CCCCCCCN(CCO)CCCCCCCC(=O)OCC1CC1CCCCCC` (centres unmarked) [Compound 28, Heptadecan-9-yl 8-((8-((2-hexylcyclopropyl)methoxy)-8-oxooctyl)(2-hydroxyethyl)amino)octanoate], the concentration at 48 h [3, 5] was 49.6 ng/g, the concentration at 48 h [3, 6] was 665 ng/g and the concentration at 48 h [4, 7] was 268 ng/g. For the same compound, the concentration at 48 h [4, 8] was 551 ng/g.
Work on `CCCCCCCCC(C)OC(=O)CCCCCCCN(CCO)CCCCCCCC(=O)OC(CCCCCCCC)CCCCCCCC` (centres unmarked) [Compound 48, decan-2-yl 8-((8-(heptadecan-9-yloxy)-8-oxooctyl)(2-hydroxyethyl)amino)octanoate] yielded a concentration at 48 h [3, 9] of 5450 ng/g, a concentration at 48 h [3, 10] of 34500 ng/g and a concentration at 48 h [4, 11] of 0.31. For the same compound, the concentration at 48 h [4, 12] was 0.21.
In the case of `CCCCCCCCCOC(=O)CCCCCCCN(CCO)CCCCCCCOC(=O)C(CCCCCCCC)CCCCCCCC` [Compound 30, 7-((2-Hydroxyethyl)(8-(nonyloxy)-8-oxooctyl)amino)heptyl 2-octyldecanoate], the “% Lipid Remaining in liver, 48 h 2 mpk” value ([3]; 2 mpk, 48 h) is reported as <0.01%.
In the case of `CCCCCCCCCN(CCO)CCCCCCCC(=O)OC(CCCCCCCC)CCCCCCCC` [Compound 3, Heptadecan-9-yl 8-((2-hydroxyethyl)(nonyl)amino)octanoate], the “% Lipid Remaining in liver, 48 h 2 mpk” value ([3]; 2 mpk, 48 h) is reported as 14%.
In the case of `CCCCCCCCCOC(=O)CCCCCCCN(CCCCCCCC(=O)OC(CCCCCCCC)CCCCCCCC)CCCN/C(=N/C#N)N(C)C` [Compound 168, Heptadecan-9-yl (Z)-8-((3-(2-cyano-3,3-dimethylguanidino)propyl)(8-(nonyloxy)-8-oxooctyl)amino)octanoate], the PDI [1] is reported as 0.1.
